Reference: US6737383B1, “Herbicidal oxadiazolidines” (priority 1999, dated 2004)

Assays:
blackgrass = assay: Test B pre/postemergence blackgrass; type: in vivo, Alopecurus myosuroides
Summary of the method: (§1)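 Test chemicals in a non-phytotoxic solvent mixture with surfactant were sprayed preemergence onto planted seeds and postemergence onto plants 2 to 18 cm tall (1- to 4-leaf stage). After twelve to sixteen days in a greenhouse, injury was visually rated against untreated controls from 0 (no effect) to 10 (complete control).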

cocklebur = assay: Test B pre/postemergence cocklebur; type: in vivo, Xanthium strumarium
Summary of the method: as §1

corn = assay: Test B pre/postemergence corn; type: in vivo, Zea mays
Summary of the method: as §1

wild oat = assay: Test B pre/postemergence wild oat; type: in vivo, Avena fatua
Summary of the method: as §1

bamyardgrass = assay: Test B flood test barnyardgrass; type: in vivo, Echinochloa crus-galli
Summary of the method: (§2)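 Read-out is a visual response score from 0 (no effect) to 10 (complete control), assigned by comparison with untreated controls. Treatment was applied at the 2-leaf stage, and plants stayed in the greenhouse for twelve to sixteen days before scoring.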

morningglory = assay: Test B pre/postemergence morningglory; type: in vivo, Ipomoea hederacea
Summary of the method: as §1

soybean = assay: Test B pre/postemergence soybean; type: in vivo, Glycine max
Summary of the method: as §1

surinam grass = assay: Test B pre/postemergence surinam grass; type: in vivo, Brachiaria decumbens
Summary of the method: as §1

giant foxtail = assay: Test B pre/postemergence giant foxtail; type: in vivo, Setaria faberii
Summary of the method: as §1

duck salad = assay: Test B flood test duck salad; type: in vivo, Heteranthera limosa
Summary of the method: as §2

smallflower flatsedge = assay: Test B flood test smallflower flatsedge; type: in vivo, Cyperus difformis
Summary of the method: as §2

velvetleaf = assay: Test B pre/postemergence velvetleaf; type: in vivo, Abutilon theophrasti
Summary of the method: as §1

rice = assay: Test B flood test rice; type: in vivo, Oryza sativa
Summary of the method: as §2

crabgrass = assay: Test B pre/postemergence crabgrass; type: in vivo, Digitaria sanguinalis
Summary of the method: as §1

sugar beet = assay: Test B pre/postemergence sugar beet; type: in vivo, Beta vulgaris
Summary of the method: as §1

pigweed = assay: Test B pre/postemergence pigweed; type: in vivo, Amaranthus retroflexus
Summary of the method: as §1

rape = assay: Test B pre/postemergence rape; type: in vivo, Brassica napus
Summary of the method: as §1

purple nutsedge = assay: Test B pre/postemergence purple nutsedge; type: in vivo, Cyperus rotundus
Summary of the method: as §1

wheat = assay: Test B pre/postemergence wheat; type: in vivo, Triticum aestivum
Summary of the method: as §1

[1] = Postemergence, Rate 62 g/ha, scale 0 to 10, 0 is no effect, 10 is complete control
[2] = Postemergence, Rate 125 g/ha, scale of 0 to 10 where 0 is no effect and 10 is complete control
[3] = Postemergence, Rate 250 g/ha, scale of 0 to 10, 0 is no effect, 10 is complete control
[4] = Preemergence, Rate 62 g/ha, scale of 0 to 10 where 0 is no effect and 10 is complete control
[5] = Preemergence, Rate 125 g/ha, scale of 0 to 10 where 0 is no effect and 10 is complete control
[6] = Preemergence, Rate 250 g/ha, scale 0 to 10 (0 no effect, 10 complete control)
[7] = Preemergence, Rate 500 g/ha, scale of 0 to 10 where 0 is no effect and 10 is complete control
[8] = Rate 500 g/ha, Postemergence, scale 0 to 10, 0 is no effect, 10 is complete control
[9] = Rate 62 g/ha, flood test species, Pre-emergence, visual evaluation after twelve to sixteen days
[10] = Rate 125 g/ha, under heading Pre-emergence, flood test species, visual evaluation after twelve to sixteen days
[11] = Rate 250 g/ha, Pre-emergence (flood test species), scale 0 to 10, 0 is no effect, 10 is complete control
[12] = Rate 500 g/ha, Pre-emergence section of Table B, 0 to 10 scale (0 no effect, 10 complete control)

CC(C)N(C(=O)n1oc(=O)n(C(C)C)c1=O)c1ccncc1 [Compound 663]
2: Blackgrass plant response rating (blackgrass; [8]) | Cocklebur plant response rating (cocklebur; [8]) | Plant response rating, Soybean (soybean; [7]) | Velvetleaf plant response rating (velvetleaf; [8])
5: Plant response rating, Giant foxtail (giant foxtail; [6])
3: Giant foxtail plant response rating (giant foxtail; [5]) | Plant response rating, Velvetleaf (velvetleaf; [7]) | Plant response rating, Wheat (wheat; [7])
4: Morningglory plant response rating (morningglory; [3]) | Morningglory plant response rating (morningglory; [8]) | Giant foxtail plant response rating (giant foxtail; [8]) | Crabgrass plant response rating (crabgrass; [8]) | Sugarbeets plant response rating (sugar beet; [8]) | Plant response rating, Rape (rape; [7])
7: Plant response rating, Morningglory (morningglory; [7]) | Plant response rating, Redroot pigweed (pigweed; [6]) | Plant response rating, Redroot pigweed (pigweed; [7])
9: Plant response rating, Giant foxtail (giant foxtail; [7])
0: Plant response rating, Blackgrass (blackgrass; [1]) | Blackgrass plant response rating (blackgrass; [2]) | Blackgrass plant response rating (blackgrass; [3]) | Blackgrass plant response rating (blackgrass; [4]) | Blackgrass plant response rating (blackgrass; [5]) | Plant response rating, Blackgrass (blackgrass; [6]) | Plant response rating, Blackgrass (blackgrass; [7]) | Plant response rating, Cocklebur (cocklebur; [1]) | Cocklebur plant response rating (cocklebur; [2]) | Cocklebur plant response rating (cocklebur; [3]) | Cocklebur plant response rating (cocklebur; [4]) | Cocklebur plant response rating (cocklebur; [5]) | Plant response rating, Cocklebur (cocklebur; [6]) | Plant response rating, Cocklebur (cocklebur; [7]) | Plant response rating, Corn (corn; [1]) | Corn plant response rating (corn; [2]) | Corn plant response rating (corn; [3]) | Corn plant response rating (corn; [4]) | Corn plant response rating (corn; [5]) | Plant response rating, Corn (corn; [6]) | Plant response rating, Corn (corn; [7]) | Corn plant response rating (corn; [8]) | Plant response rating, Wild oats (wild oat; [1]) | Wild oats plant response rating (wild oat; [2]) | Wild oats plant response rating (wild oat; [4]) | Wild oats plant response rating (wild oat; [5]) | Plant response rating, Wild oats (wild oat; [6]) | Plant response rating, Wild oats (wild oat; [7]) | Wild oats plant response rating (wild oat; [8]) | Plant response rating, Barnyardgrass (0 to 10 scale, 0 is no effect, 10 is complete control) (bamyardgrass; [9]) | Barnyardgrass plant response rating (0 to 10 scale, 0 is no effect, 10 is complete control) (bamyardgrass; [10]) | Barnyardgrass plant response rating (bamyardgrass; [11]) | Barnyardgrass plant response rating (bamyardgrass; [12]) | Plant response rating, Morningglory (morningglory; [1]) | Morningglory plant response rating (morningglory; [2]) | Morningglory plant response rating (morningglory; [4]) | Morningglory plant response rating (morningglory; [5]) | Plant response rating, Morningglory (morningglory; [6]) | Soybean plant response rating (soybean; [2]) | Soybean plant response rating (soybean; [4]) | Soybean plant response rating (soybean; [5]) | Plant response rating, Soybean (soybean; [6]) | Plant response rating, B. signalgrass (surinam grass; [1]) | Plant response rating, B. signalgrass (surinam grass; [2]) | B. signalgrass plant response rating (surinam grass; [3]) | B. signalgrass plant response rating (surinam grass; [4]) | B. signalgrass plant response rating (surinam grass; [5]) | Plant response rating, B. signalgrass (surinam grass; [6]) | Plant response rating, B. signalgrass (surinam grass; [7]) | B. signalgrass plant response rating (surinam grass; [8]) | Plant response rating, Giant foxtail (giant foxtail; [1]) | Giant foxtail plant response rating (giant foxtail; [2]) | Giant foxtail plant response rating (giant foxtail; [3]) | Giant foxtail plant response rating (giant foxtail; [4]) | Plant response rating, Ducksalad (0 to 10 scale, 0 is no effect, 10 is complete control) (duck salad; [9]) | Ducksalad plant response rating (0 to 10 scale, 0 is no effect, 10 is complete control) (duck salad; [10]) | Ducksalad plant response rating (duck salad; [11]) | Ducksalad plant response rating (duck salad; [12]) | Plant response rating, S. Flatsedge (0 to 10 scale, 0 is no effect, 10 is complete control) (smallflower flatsedge; [9]) | S. Flatsedge plant response rating (0 to 10 scale, 0 is no effect, 10 is complete control) (smallflower flatsedge; [10]) | S. Flatsedge plant response rating (smallflower flatsedge; [11]) | S. Flatsedge plant response rating (smallflower flatsedge; [12]) | Plant response rating, Velvetleaf (velvetleaf; [1]) | Velvetleaf plant response rating (velvetleaf; [2]) | Velvetleaf plant response rating (velvetleaf; [4]) | Velvetleaf plant response rating (velvetleaf; [5]) | Plant response rating, Velvetleaf (velvetleaf; [6]) | Plant response rating, Rice (0 to 10 scale, 0 is no effect, 10 is complete control) (rice; [9]) | Rice plant response rating (0 to 10 scale, 0 is no effect, 10 is complete control) (rice; [10]) | Rice plant response rating (rice; [11]) | Rice plant response rating (rice; [12]) | Plant response rating, Crabgrass (crabgrass; [1]) | Crabgrass plant response rating (crabgrass; [2]) | Crabgrass plant response rating (crabgrass; [3]) | Crabgrass plant response rating (crabgrass; [4]) | Crabgrass plant response rating (crabgrass; [5]) | Plant response rating, Crabgrass (crabgrass; [6]) | Plant response rating, Crabgrass (crabgrass; [7]) | Plant response rating, Sugarbeets (sugar beet; [1]) | Sugarbeets plant response rating (sugar beet; [2]) | Sugarbeets plant response rating (sugar beet; [4]) | Sugarbeets plant response rating (sugar beet; [5]) | Plant response rating, Sugarbeets (sugar beet; [6]) | Plant response rating, Sugarbeets (sugar beet; [7]) | Plant response rating, Redroot pigweed (pigweed; [1]) | Redroot pigweed plant response rating (pigweed; [2]) | Redroot pigweed plant response rating (pigweed; [4]) | Redroot pigweed plant response rating (pigweed; [5]) | Redroot pigweed plant response rating (pigweed; [8]) | Plant response rating, Rape (rape; [1]) | Rape plant response rating (rape; [2]) | Rape plant response rating (rape; [4]) | Rape plant response rating (rape; [5]) | Plant response rating, Rape (rape; [6]) | Rape plant response rating (rape; [8]) | Plant response rating, Nutsedge (purple nutsedge; [1]) | Nutsedge plant response rating (purple nutsedge; [2]) | Nutsedge plant response rating (purple nutsedge; [4]) | Nutsedge plant response rating (purple nutsedge; [5]) | Plant response rating, Nutsedge (purple nutsedge; [6]) | Plant response rating, Nutsedge (purple nutsedge; [7]) | Nutsedge plant response rating (purple nutsedge; [8]) | Plant response rating, Wheat (wheat; [1]) | Wheat plant response rating (wheat; [2]) | Wheat plant response rating (wheat; [4]) | Wheat plant response rating (wheat; [5]) | Plant response rating, Wheat (wheat; [6]) | Wheat plant response rating (wheat; [8])
